According to patent US10172957B2, “Acid-labile lipophilic prodrugs of cancer chemotherapeutic agents” (priority 2011, dated 2019):

Legend:
Format in all cases: cell-based, human
CCRF-CEM (CEM) cells = assay: MTT-based cytotoxicity assay, CEM; conditions: Homo sapiens, CCRF-CEM, read-out: IC50 CEM (HTL), CEM human T-lymphoblastoid, MTT
Source text: (§1) A second evaluation of the cytotoxicity of the acid labile, lipophilic molecular conjugates was undertaken.
(§2) These lines included a uterine sarcoma line, MES-SA, and its doxorubicin-resistant subline, MES-SA/Dx5. See W. G. Harker, F. R MacKintosh, and B. I. Sikic. Development and characterization of a human sarcoma cell line, MES-SA, sensitive to multiple drugs. Cancer Research 43: 4943-4950 (1983); W. G. Harker and B. I. Sikic. Multidrug (pleiotropic) resistance in doxorubicin-selected variants of the human sarcoma cell line MES-SA. Cancer Research 45: 4091 4096 (1985).
(§3) The second set of cells tested, CCRF-CEM or simply CEM, were derived from the blood of a patient with acute lymphoblastic leukemia. G. E. Foley, H. Lazarus, S. Farber, B. G. Uzman, B. A. Boone, and R E. McCarthy. Continuous culture of human lymphoblasts from peripheral blood of a child with acute leukemia. Cancer 18: 522-529 (1965). The subline CEM/VLB100 was developed to be resistant to up to vinblastine at 100 ng/ml. W. T. Beck, T. J. Mueller, and L. R. Tanzer. Altered surface membrane glycoproteins in Vinca alkaloid-resistant human leukemic lymphoblasts. Cancer Research 39: 2070-2076 (1979). Drug resistance is achieved by overexpression of the MDR1 gene. Resistance in the CEM subline designated CEM/VM-1-5, however, is “atypical.” M. K. Danks, J. C. Yalowich, and W. T. Beck. Atypical multiple drug resistance in a human leukemic cell line selected for resistance to teniposide (VM-26). Cancer Research 47: 1297-1301 (1987). The classes of drugs included in the “classic” multiple drug resistance phenotype are Vinca alkaloids, anthracyclines, epipodophyllotoxins and antibiotics. However, CEM/VM-1-5 cells retain sensitivity to the Vinca alkaloids despite resistance and cross-resistance to etoposide, anthracyclines and mitoxantrone. Danks, M. K.; Schmidt, C. A.; Cirtain, M. C.; Suttle, D. P.; Beck, W. T., Altered catalytic activity of and DNA cleavage by DNA topoisomerase II from human leukemic cells selected for resistance to VM-26. Biochemistry 1988, 27, 8861-8869. Resistance in CEM/VM-1-5 cells is effected by over expression of the […]. CEM, CEM/VLB100 and CEM/VM-1-5 cells were obtained from Dr. WT Beck, University of Illinois at Chicago.

CEM/VLB100 cells (MDR+) = assay: cells; conditions: for IC50: Homo sapiens, CEM/VLB100, read-out: IC50 CEM/VLB100 (MDR + HTL), CEM/VLB100, MTT; for Degree of resistance (CEM/VLB100): IC50 of the resistant line divided by IC50 of sensitive CEM cells
Source text: as §1, §2, §3

CEM/VM-1-5 cells (MDR+) = assay: cells; conditions: for IC50: Homo sapiens, read-out: IC50 CEM/VM-1-5 (MDR + HTL), CEM/VM-1-5, MTT; for Degree of resistance (CEM/VM-1-5): IC50 of the resistant line divided by IC50 of sensitive CEM cells
Source text: A second evaluation of the cytotoxicity of the acid labile, lipophilic molecular conjugates was undertaken. […]
as §3

Row | Structure (SMILES) | IC50 (CCRF-CEM (CEM) cells) | IC50 (CEM/VLB100 cells (MDR+)) | Degree of resistance (CEM/VLB100) (CEM/VLB100 cells (MDR+)) | IC50 (CEM/VM-1-5 cells (MDR+)) | Degree of resistance (CEM/VM-1-5) (CEM/VM-1-5 cells (MDR+))
1 | CCCCCCCCCCCCCCCC1OCC(COC(=O)O[C@@H]2C(=O)C=C(C)[C@@H]3C[C@H]4OC(=O)C(OC(=O)CC(O)(C(C)C)C(C)C)C5[C@@H](C)[C@@H](O)[C@@]6(O)OC[C@@]54C6[C@@]23C)O1 (stereo partly drawn) [ART 488] | 4 nM | 34 ± 12 nM | 9 ± 4 | 8 ± 4 nM | 2 ± 1
2 | CCCCCCCCCCCCCCCC1OCC(COC(=O)OC2=C(C)[C@@H]3C[C@H]4OC(=O)C(OC(=O)CC5(O)CCCCC5)[C@H]5[C@]6(C(=O)OC)OC[C@]45[C@H]([C@@H](O)[C@@H]6O)[C@@]3(C)CC2=O)O1 (stereo partly drawn) [ART 489] | 21 ± 2 nM | 670 ± 71 nM | 33 ± 0 | 24 ± 4 nM | 1.2 ± 0.07
3 | COC(=O)[C@@]12OC[C@]34[C@H]([C@@H](O)[C@@H]1O)[C@@]1(C)CC(=O)C(O)=C(C)[C@@H]1C[C@H]3OC(=O)C(OC(=O)CC1(O)CCCCC1)[C@@H]24 (stereo partly drawn) [ART 198] | 113 ± 53 nM | 7190 ± 1920 nM | 76 ± 52 | 308 ± 10 nM | 3 ± 1
